PubChem BioAssay AID256 (DTP/NCI, 2004)
Inconclusive results and toxic doses are left out.

System: CD2F1 mice, L1210 leukemia ip, survival T/C
Experiment: NCI In Vivo Anticancer Drug Screen. Data for tumor model L1210 Leukemia (intraperitoneal) in CD2F1 (CDF1) mice
Details: higher = longer survival
Method in brief: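 Mice carrying a transplanted tumor received test compound or vehicle alone. The value is the measurement in the treated group divided by that in the vehicle-treated control group.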

[1] = endpoint: mean survival time, dose: 25.0 mg/kg/injection, schedule: Q04DX003 (ip), vehicle: saline with Tween-80
[2] = endpoint: mean survival time, dose: 50.0 mg/kg/injection, schedule: Q04DX003 (ip), vehicle: saline with Tween-80
[3] = endpoint: mean survival time, dose: 100.0 mg/kg/injection, schedule: Q04DX003 (ip), vehicle: saline with Tween-80
[4] = endpoint: mean survival time, dose: 100.0 mg/kg/injection, schedule: Q01DX001 (ip), vehicle: saline
[5] = endpoint: mean survival time, dose: 200.0 mg/kg/injection, schedule: Q01DX001 (ip), vehicle: saline
[6] = endpoint: mean survival time, dose: 400.0 mg/kg/injection, schedule: Q01DX001 (ip), vehicle: saline
[7] = endpoint: mean survival time, dose: 100.0 mg/kg/injection, schedule: Q04DX002 (ip), vehicle: saline with Tween-80
[8] = endpoint: mean survival time, dose: 100.0 mg/kg/injection, schedule: Q04DX003 (ip), vehicle: saline
[9] = endpoint: mean survival time, dose: 200.0 mg/kg/injection, schedule: Q04DX003 (ip), vehicle: saline
[10] = endpoint: mean survival time, dose: 400.0 mg/kg/injection, schedule: Q04DX003 (ip), vehicle: saline
[11] = endpoint: mean survival time, dose: 200.0 mg/kg/injection, schedule: Q04DX003 (ip), vehicle: saline with Tween-80
[12] = endpoint: mean survival time, dose: 400.0 mg/kg/injection, schedule: Q04DX003 (ip), vehicle: saline with Tween-80
[13] = endpoint: mean survival time, dose: 50.0 mg/kg/injection, schedule: Q01DX009 (ip), vehicle: saline with Tween-80
[14] = endpoint: mean survival time, dose: 100.0 mg/kg/injection, schedule: Q01DX009 (ip), vehicle: saline with Tween-80
[15] = endpoint: mean survival time, dose: 200.0 mg/kg/injection, schedule: Q01DX009 (ip), vehicle: saline with Tween-80

[Cl][Pt][Cl].c1ccc([AsH](CC[AsH](c2ccccc2)c2ccccc2)c2ccccc2)cc1
T/C [1]: 94 % of control
T/C [2]: 88 % of control
T/C [3]: 96 % of control

CC(COCc1ccccc1)COP(N)(=O)N(CCCl)CCCl (stereo not drawn)
T/C (endpoint: mean survival time, dose: 15.62 mg/kg/injection, schedule: Q01DX001 (ip), vehicle: DMSO): 97 % of control
T/C (endpoint: mean survival time, dose: 31.3 mg/kg/injection, schedule: Q01DX001 (ip), vehicle: DMSO): 98 % of control
T/C (endpoint: mean survival time, dose: 62.5 mg/kg/injection, schedule: Q01DX001 (ip), vehicle: DMSO): 101 % of control
T/C (endpoint: mean survival time, dose: 125.0 mg/kg/injection, schedule: Q01DX001 (ip), vehicle: DMSO): 111 % of control
T/C (endpoint: mean survival time, dose: 250.0 mg/kg/injection, schedule: Q01DX001 (ip), vehicle: DMSO): 103 % of control
T/C (endpoint: mean survival time, dose: 500.0 mg/kg/injection, schedule: Q01DX001 (ip), vehicle: DMSO): 101 % of control

O=c1cc2c(=O)oc3cc(O)c(O)oc3c2c(O)c1O
T/C [4]: 101 % of control
T/C [5]: 98 % of control
T/C [6]: 98 % of control

CCN(C(=O)Nc1ccccc1Cl)c1ccccc1
T/C (endpoint: mean survival time, dose: 75.0 mg/kg/injection, schedule: Q04DX003 (ip), vehicle: saline with Tween-80): 102 % of control
T/C (endpoint: mean survival time, dose: 150.0 mg/kg/injection, schedule: Q04DX003 (ip), vehicle: saline with Tween-80): 101 % of control
T/C (endpoint: mean survival time, dose: 300.0 mg/kg/injection, schedule: Q04DX003 (ip), vehicle: saline with Tween-80): 98 % of control

CC(C)P(=O)(CC(=O)O)c1ccccc1 (stereo not drawn)
T/C (endpoint: mean survival time, dose: 25.0 mg/kg/injection, schedule: Q04DX002 (ip), vehicle: saline with Tween-80): 107 % of control
T/C (endpoint: mean survival time, dose: 50.0 mg/kg/injection, schedule: Q04DX002 (ip), vehicle: saline with Tween-80): 96 % of control
T/C [7]: 100 % of control

CCCCCCCCC(=O)CCCC
T/C [8]: 102 % of control
T/C [9]: 100 % of control
T/C [10]: 98 % of control

Nc1ccc(S(=O)(=O)c2ccc(N3CCOCC3)c(N)c2)cc1
T/C [7]: 105 % of control
T/C (endpoint: mean survival time, dose: 200.0 mg/kg/injection, schedule: Q04DX002 (ip), vehicle: saline with Tween-80): 94 % of control
T/C (endpoint: mean survival time, dose: 400.0 mg/kg/injection, schedule: Q04DX002 (ip), vehicle: saline with Tween-80): 97 % of control

COc1ccc(/C=N\N=C\c2ccc(OC)c(OC)c2)cc1OC
T/C [8]: 105 % of control
T/C [9]: 100 % of control
T/C [10]: 94 % of control

CCOC(=O)C[S+](C)C
T/C (endpoint: mean survival time, dose: 75.0 mg/kg/injection, schedule: Q01DX001 (ip), vehicle: saline): 90 % of control
T/C (endpoint: mean survival time, dose: 150.0 mg/kg/injection, schedule: Q01DX001 (ip), vehicle: saline): 93 % of control

CS(=O)(=O)OCCN(CCOS(C)(=O)=O)c1ccc(N=Nc2ccccc2C(=O)O)cc1
T/C (endpoint: mean survival time, dose: 1.56 mg/kg/injection, schedule: Q01DX009 (ip), vehicle: Klucel (hydroxypropylcellulose) (HPC)): 124 % of control
T/C (endpoint: mean survival time, dose: 3.12 mg/kg/injection, schedule: Q01DX009 (ip), vehicle: Klucel (hydroxypropylcellulose) (HPC)): 155 % of control
T/C (endpoint: mean survival time, dose: 6.25 mg/kg/injection, schedule: Q01DX009 (ip), vehicle: Klucel (hydroxypropylcellulose) (HPC)): 176 % of control

Cc1cc(NC(=O)NCCOc2ccc(N3C(N)=NC(N)=NC3(C)C)cc2Cl)ccc1S(=O)(=O)F
T/C (endpoint: mean survival time, dose: 12.5 mg/kg/injection, schedule: Q04DX003 (ip), vehicle: saline with Tween-80): 107 % of control
T/C [1]: 102 % of control
T/C [2]: 91 % of control

O=C1CCC(=O)N1CCC1=NCCc2ccccc21
T/C [3]: 100 % of control
T/C [11]: 96 % of control
T/C [12]: 100 % of control

Cc1[nH]c(=S)[nH]c(=O)c1CCS
T/C [4]: 104 % of control
T/C [5]: 101 % of control
T/C [6]: 98 % of control

O=C1c2ccccc2C(=O)N1c1ccc(Br)cc1
T/C (endpoint: mean survival time, dose: 100.0 mg/kg/injection, schedule: Q01DX001 (ip), vehicle: Klucel (hydroxypropylcellulose) (HPC)): 100 % of control
T/C (endpoint: mean survival time, dose: 400.0 mg/kg/injection, schedule: Q01DX001 (ip), vehicle: Klucel (hydroxypropylcellulose) (HPC)): 96 % of control

O=C(c1ccccc1)N1CC2CC3OC3c3cccc1c32 (stereo not drawn)
T/C [13]: 102 % of control
T/C [14]: 98 % of control
T/C [15]: 94 % of control

O=C(CC(O)(C(F)(F)F)C(F)(F)F)c1ccc(Br)cc1
T/C (endpoint: mean survival time, dose: 100.0 mg/kg/injection, schedule: Q01DX009 (ip), vehicle: other): 106 % of control
T/C (endpoint: mean survival time, dose: 200.0 mg/kg/injection, schedule: Q01DX009 (ip), vehicle: other): 100 % of control
T/C (endpoint: mean survival time, dose: 400.0 mg/kg/injection, schedule: Q01DX009 (ip), vehicle: other): 95 % of control

NC(CCC(=O)Nc1cccc2ccccc12)C(=O)O (stereo not drawn)
T/C [13]: 98 % of control
T/C [14]: 107 % of control
T/C [15]: 104 % of control

O=[N+]([O-])c1ccc2ccccc2c1-c1c([N+](=O)[O-])ccc2ccccc12
T/C [13]: 92 % of control
T/C [14]: 90 % of control
T/C [3]: 93 % of control
T/C [15]: 90 % of control
T/C [11]: 87 % of control

CCOC(=O)C(=NCc1ccc2c(c1)OCO2)NO
T/C [3]: 96 % of control
T/C [11]: 100 % of control
T/C [12]: 101 % of control

C[N+](C)(C)CC1CCCC1
T/C (endpoint: mean survival time, dose: 5.0 mg/kg/injection, schedule: Q01DX001 (ip), vehicle: saline): 97 % of control
T/C (endpoint: mean survival time, dose: 10.0 mg/kg/injection, schedule: Q01DX001 (ip), vehicle: saline): 102 % of control
T/C (endpoint: mean survival time, dose: 20.0 mg/kg/injection, schedule: Q01DX001 (ip), vehicle: saline): 103 % of control
T/C (endpoint: mean survival time, dose: 40.0 mg/kg/injection, schedule: Q01DX001 (ip), vehicle: saline): 103 % of control

CC(C)(C)CC(C)(C)c1ccc(OCCOc2ccc(C(=O)Nc3ccc([N+](=O)[O-])cc3)cc2)cc1
T/C (endpoint: mean survival time, dose: 100.0 mg/kg/injection, schedule: Q01DX009 (ip), vehicle: Klucel (hydroxypropylcellulose) (HPC)): 87 % of control
T/C (endpoint: mean survival time, dose: 100.0 mg/kg/injection, schedule: Q04DX003 (ip), vehicle: Klucel (hydroxypropylcellulose) (HPC)): 96 % of control
T/C (endpoint: mean survival time, dose: 200.0 mg/kg/injection, schedule: Q01DX009 (ip), vehicle: Klucel (hydroxypropylcellulose) (HPC)): 105 % of control
T/C (endpoint: mean survival time, dose: 200.0 mg/kg/injection, schedule: Q04DX003 (ip), vehicle: Klucel (hydroxypropylcellulose) (HPC)): 98 % of control
T/C (endpoint: mean survival time, dose: 400.0 mg/kg/injection, schedule: Q04DX003 (ip), vehicle: Klucel (hydroxypropylcellulose) (HPC)): 94 % of control

CCOC(=O)CCSCCC(=O)OCC
T/C [3]: 100 % of control
T/C [11]: 96 % of control
T/C [12]: 98 % of control

CC(=O)OCC(=O)[C@@]1(O)CC[C@H]2[C@@H]3CCC4=CC(=O)C=C[C@]4(C)[C@H]3C(=O)C[C@@]21C
T/C (endpoint: mean survival time, dose: 12.5 mg/kg/injection, schedule: Q04DX003 (ip), vehicle: Klucel (hydroxypropylcellulose) (HPC)): 101 % of control
T/C (endpoint: mean survival time, dose: 25.0 mg/kg/injection, schedule: Q04DX003 (ip), vehicle: Klucel (hydroxypropylcellulose) (HPC)): 109 % of control
T/C (endpoint: mean survival time, dose: 50.0 mg/kg/injection, schedule: Q04DX003 (ip), vehicle: Klucel (hydroxypropylcellulose) (HPC)): 100 % of control

CSc1nc(NC2OC(CO)C(O)C(O)C2O)c(I)c(=O)[nH]1 (stereo not drawn)
T/C (endpoint: median survival time, dose: 12.5 mg/kg/injection, schedule: Q01DX005 (ip), vehicle: saline with Tween-80): 100 % of control
T/C (endpoint: median survival time, dose: 25.0 mg/kg/injection, schedule: Q01DX005 (ip), vehicle: saline with Tween-80): 98 % of control
T/C (endpoint: median survival time, dose: 50.0 mg/kg/injection, schedule: Q01DX005 (ip), vehicle: saline with Tween-80): 100 % of control
T/C (endpoint: median survival time, dose: 100.0 mg/kg/injection, schedule: Q01DX005 (ip), vehicle: saline with Tween-80): 100 % of control
T/C (endpoint: median survival time, dose: 200.0 mg/kg/injection, schedule: Q01DX005 (ip), vehicle: saline with Tween-80): 102 % of control

CN(C)N=Nc1ccc(C#N)cc1C(N)=O
T/C (endpoint: mean survival time, dose: 18.8 mg/kg/injection, schedule: Q01DX009 (ip), vehicle: Klucel (hydroxypropylcellulose) (HPC)): 106 % of control
T/C (endpoint: mean survival time, dose: 37.5 mg/kg/injection, schedule: Q01DX009 (ip), vehicle: Klucel (hydroxypropylcellulose) (HPC)): 119 % of control
T/C (endpoint: mean survival time, dose: 150.0 mg/kg/injection, schedule: Q01DX009 (ip), vehicle: Klucel (hydroxypropylcellulose) (HPC)): 101 % of control
